Drawing on the SangsterLogP compilation, this text covers logD for 18 compounds.

Assay in the first series: not given
The settings on record: pH 3.5.
Usually logD stands for the decadic logarithm of the distribution of all forms, ionised or not, between an organic phase and buffer at a given pH. Lower therefore signals lower lipophilicity. `COc1cccc(NC(=S)c2ccc(O)cc2O)c1` had a logD of 3.54.

The nature of a further series: method code SF-AS, from DOI: 10.1002/qsar.200430865. The following applies: pH 3.5.
In turn, `Oc1ccc(C(=S)Nc2cc(Cl)ccc2O)c(O)c1` registered a logD of 3.58.
The same measure, in the same setting: then `N#Cc1ccc(NC(=S)c2ccc(O)cc2O)cc1`, with 2.41; and `Oc1ccc(C(=S)Nc2ccc(Cl)c(F)c2)c(O)c1`, with 4.43.
The same measure, in the same setting: then `Oc1ccc(C(=S)Nc2cc(Cl)c(Cl)cc2Cl)c(O)c1`, with 4.92; and `COC(=O)c1ccccc1NC(=S)c1ccc(O)cc1O`, with 2.92.
Same read-out and setting: as for `Oc1ccc(C(=S)Nc2ccc(Br)cc2)c(O)c1`, the figure is 4.02.
`CCOc1ccc(NC(=S)c2ccc(O)cc2O)cc1` had a logD of 3.49.
Still for that read-out and setting: as for `Oc1ccc(C(=S)Nc2cccc(Br)c2)c(O)c1`, the figure is 3.46.
`CC(=O)c1cccc(NC(=S)c2ccc(O)cc2O)c1` registered a logD of 2.36.
Same read-out and setting: as for `CCOc1ccccc1NC(=S)c1ccc(O)cc1O`, the figure is 3.8; as for `Oc1ccc(C(=S)Nc2cccc(C(F)(F)F)c2)c(O)c1`, 4.26.
Still for that read-out and setting: as for `Oc1ccc(C(=S)Nc2cccc(F)c2)c(O)c1`, the figure is 3.41.
Still for that read-out and setting: then `Oc1ccc(C(=S)Nc2ccc(F)cc2F)c(O)c1`, with 3.54.
Compound `Oc1ccc(C(=S)Nc2cccc(Cl)c2)c(O)c1` displayed a logD of 3.9.
The same measure, in the same setting: then `Oc1ccc(C(=S)Nc2ccc(Cl)cc2Cl)c(O)c1`, with 4.26; and `Oc1ccc(C(=S)Nc2ccccc2F)c(O)c1`, with 3.36; and `Oc1ccc(C(=S)Nc2cccc(Cl)c2Cl)c(O)c1`, with 4.02.
